Data from paper PMC11940195, “Characterization of a GH43 Bifunctional Glycosidase from Endophytic Chaetomium globosum and Its Potential Application in the Biotransformation of Ginsenosides” (BioTech, 2025).

Tested on: T1, Xyaf313
T1 construct: gene of 1380 bp, 460 aa, about 50 kDa theoretical; C-terminal His6; codon-optimized, pPIC9K, secreted from Pichia pastoris GS115, Ni-NTA
Assay: p-nitrophenol release, Michaelis-Menten nonlinear fit
Type: biochemical, Chaetomium globosum
Details: pH 7, 50 °C (optimal conditions); substrate 0.5-5.0 mM
From the text: p-nitrophenol release, Michaelis-Menten nonlinear fit on Xyaf313

Row | Km | Structure (SMILES)
1 | 5.65 ± 1.67 mM | O=[N+]([O-])c1ccc(O[C@@H]2O[C@@H](CO)[C@H](O)[C@H]2O)cc1 [4-nitrophenyl α-L-arabinofuranoside]
2 | 1.77 ± 1.27 mM | O=[N+]([O-])c1ccc(O[C@@H]2OC[C@@H](O)[C@H](O)[C@H]2O)cc1 [ρ-nitrophenyl β-D-xylopyranoside]
